# In patent US9839629B2, “Inhibitors of the renal outer medullary potassium channel” (Merck Sharp & Dohme Corp., priority 2013, dated 2017):
# Target: T1, ROMK (Kir1.1) channel (Homo sapiens, UniProt P48048)
# T1 sequence (P48048 1-391): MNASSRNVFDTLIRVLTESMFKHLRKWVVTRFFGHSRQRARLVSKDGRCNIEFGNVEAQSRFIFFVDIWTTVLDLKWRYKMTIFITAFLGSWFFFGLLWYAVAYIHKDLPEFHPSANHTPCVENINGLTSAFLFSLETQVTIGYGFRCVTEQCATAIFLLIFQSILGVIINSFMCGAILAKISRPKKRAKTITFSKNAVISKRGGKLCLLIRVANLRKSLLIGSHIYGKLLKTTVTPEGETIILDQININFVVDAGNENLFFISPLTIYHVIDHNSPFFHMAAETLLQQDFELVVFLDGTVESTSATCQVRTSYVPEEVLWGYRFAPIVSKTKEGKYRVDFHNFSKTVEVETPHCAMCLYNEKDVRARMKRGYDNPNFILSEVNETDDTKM
# Test: Thallium Flux Assay
# Type: cell-based
# Method: A Thallium Flux Assay was performed on each of the final product compounds in the Examples. When the final product of an Example was an HCl salt, the salt was run in the Assay. This assay has been described previously; see, e.g., PCT Published Application WO 2013/062900.
row,Structure (SMILES),IC50 [nM]
1,"CC1=C(N2CCC3(CCN(C[C@H](O)c4ccc(-n5cnnn5)nc4C)CC3)CC2=O)COC1=O [Example 29, (R)-9-(2-hydroxy-2-(2-methyl-6-(1H-tetrazol-1-yl)pyridin-3-yl)ethyl)-3-(4-methyl-5-oxo-2,5-dihydrofuran-3-yl)-3,9-diazaspiro[5.5]undecan-2-one]",330
2,"Cc1c(N2CCC3(CCN(C[C@@H](O)c4cnc(-n5cnnn5)cn4)CC3)CC2)c(=O)c1=O [Example 86, (R)-3-(9-(2-(5-(1H-tetrazol-1-yl)pyrazin-2-yl)-2-hydroxyethyl)-3,9-diazaspiro[5.5]undecan-3-yl)-4-methylcyclobut-3-ene-1,2-dione]",336
3,"CC1=C(N2CCC3(CCN(C[C@H](O)c4cc(-n5cnnn5)ccn4)CC3)CC2)COC1=O [Example 67, (S)-4-(9-(2-(4-(1H-tetrazol-1-yl)pyridin-2-yl)-2-hydroxyethyl)-3,9-diazaspiro[5.5]undecan-3-yl)-3-methylfuran-2(5H)-one]",305
4,"CC1=C(N2CCC3(CCN(C[C@H](O)c4ccc5c(c4C)COC5=O)CC3)[C@H](F)C2)COC1=O [Example 35, 5-((R)-2-((S)-7-fluoro-9-(4-methyl-5-oxo-2,5-dihydrofuran-3-yl)-3,9-diazaspiro[5.5]undecan-3-yl)-1-hydroxyethyl)-4-methylisobenzofuran-1(3H)-one]",236
5,"Cc1c(N2CCC3(CCN(C[C@H](O)c4ccc5c(ccc6nnnn65)c4)CC3)CC2)c(=O)c1=O [Example 88, (R)-3-(9-(2-hydroxy-2-(tetrazolo[1,5-a]quinolin-7-yl)ethyl)-3,9-diazaspiro[5.5]undecan-3-yl)-4-methylcyclobut-3-ene-1,2-dione]",223
6,"CC1=C(N2CCC3(CCN(C[C@H](O)c4ccc5c(c4C)COC5=O)CC3)CC2)CCC1=O [Example 76, (R)-5-(1-hydroxy-2-(9-(2-methyl-3-oxocyclopent-1-en-1-yl)-3,9-diazaspiro[5.5]undecan-3-yl)ethyl)-4-methylisobenzofuran-1(3H)-one]",109
7,"O=C1C=C(N2CCC3(CCN(CC(O)c4cnc(-n5cnnn5)nc4)CC3)CC2)CO1 (centres unmarked) [Example 15, 4-(9-(2-(2-(1H-tetrazol-1-yl)pyrimidin-5-yl)-2-hydroxyethyl)-3,9-diazaspiro[5.5]undecan-3-yl)furan-2(5H)-one]",443
8,"CC1=C(N2CCC3(CCN(C[C@H](O)c4ccc5c(c4C)COC5=O)CC3)[C@@H](O)C2)COC1=O [Example 94, 5-{(1R)-1-hydroxy-2-[(7R)-7-hydroxy-9-(4-methyl-5-oxo-2,5-dihydrofuran-3-yl)-3,9-diazaspiro[5.5]undec-3-yl]ethyl}-4-methyl-2-benzofuran-1(3H)-one]",639
9,"Cc1c([C@@H](O)CN2CCC3(CC2)CCN(C2=C(F)C(=O)OC2)CC3)ccc2c1COC2=O [Example 38, (R)-5-(2-(9-(4-fluoro-5-oxo-2,5-dihydrofuran-3-yl)-3,9-diazaspiro[5.5]undecan-3-yl)-1-hydroxyethyl)-4-methylisobenzofuran-1(3H)-one]",7
10,"Cc1c(N2CCC3(CCN(C[C@@H](O)c4ccc(-n5cnnn5)nn4)CC3)CC2)c(=O)c1=O [Example 84, (R)-3-(9-(2-(6-(1H-tetrazol-1-yl)pyridazin-3-yl)-2-hydroxyethyl)-3,9-diazaspiro[5.5]undecan-3-yl)-4-methylcyclobut-3-ene-1,2-dione]",765
11,"Cc1c(CC(=O)N2CCC3(CC2)CCN(C2=CC(=O)OC2)CC3)ccc2c1COC2=O [Example 105, 4-methyl-5-{2-oxo-2-[9-(5-oxo-2,5-dihydrofuran-3-yl)-3,9-diazaspiro[5.5]undec-3-yl]ethyl}-2-benzofuran-1(3H)-one]",483
12,"CC1=C(N2CCC3(CCN(C[C@H](O)c4cncc(-n5cnnn5)c4)CC3)CC2)COC1=O [Example 63, (R)-4-(9-(2-(5-(1H-tetrazol-1-yl)pyridin-3-yl)-2-hydroxyethyl)-3,9-diazaspiro[5.5]undecan-3-yl)-3-methylfuran-2(5H)-one]",196

# Results, then the compound that gave them:
row,IC50 [nM],Structure (SMILES)
1,32,"CC1=C(N2CCC3(CCN(C[C@@H](O)c4cccc(-n5cnnn5)c4)CC3)CC2)COC1=O [Example 60, (S)-4-(9-(2-(3-(1H-tetrazol-1-yl)phenyl)-2-hydroxyethyl)-3,9-diazaspiro[5.5]undecan-3-yl)-3-methylfuran-2(5H)-one]"
2,11,"CC1=C(N2CCC3(CCN(C[C@H](O)c4ccc(-n5cnnn5)cc4C)CC3)CC2)COC1=O [Example 55, (R)-4-(9-(2-hydroxy-2-(2-methyl-4-(1H-tetrazol-1-yl)phenyl)ethyl)-3,9-diazaspiro[5.5]undecan-3-yl)-3-methylfuran-2(5H)-one]"
3,33,"CC1=C(N2CCC3(CCN(C[C@H](O)c4ccnc(-n5cnnn5)c4)CC3)CC2)COC1=O [Example 61, (R)-4-(9-(2-(2-(1H-tetrazol-1-yl)pyridin-4-yl)-2-hydroxyethyl)-3,9-diazaspiro[5.5]undecan-3-yl)-3-methylfuran-2(5H)-one]"
4,42,"CO[C@H]1CN(C2=C(C)C(=O)OC2)CCC12CCN(C[C@H](O)c1ccc3c(c1C)COC3=O)CC2 [Example 97, 5-{(1R)-1-hydroxy-2-[(7R)-7-methoxy-9-(4-methyl-5-oxo-2,5-dihydrofuran-3-yl)-3,9-diazaspiro[5.5]undec-3-yl]ethyl}-4-methyl-2-benzofuran-1(3H)-one]"
5,110,"CCc1c(N2CCC3(CCN(C[C@H](O)c4ccc5c(c4C)COC5=O)CC3)CC2)c(=O)c1=O [Example 79, (R)-3-ethyl-4-(9-(2-hydroxy-2-(4-methyl-1-oxo-1,3-dihydroisobenzofuran-5-yl)ethyl)-3,9-diazaspiro[5.5]undecan-3-yl)cyclobut-3-ene-1,2-dione]"
6,198,"CO[C@@H](CN1CCC2(CC1)CCN(C1=CC(=O)OC1)CC2)c1ccc2c(c1C)COC2=O [Example 91, (R)-5-(1-methoxy-2-(9-(5-oxo-2,5-dihydrofuran-3-yl)-3,9-diazaspiro[5.5]undecan-3-yl)ethyl)-4-methylisobenzofuran-1(3H)-one]"
7,634,"CC1=C(N2CCC3(CCN(C[C@@H](O)c4ccccc4-n4cnnn4)CC3)CC2)COC1=O [Example 69, (S)-4-(9-(2-(2-(1H-tetrazol-1-yl)phenyl)-2-hydroxyethyl)-3,9-diazaspiro[5.5]undecan-3-yl)-3-methylfuran-2(5H)-one]"
8,168,"Cc1c([C@@H](O)CN2CCC3(CC2)CCN(C2=C(c4ccccc4)C(=O)OC2)CC3)ccc2c1COC2=O [Example 41, (R)-5-(1-hydroxy-2-(9-(5-oxo-4-phenyl-2,5-dihydrofuran-3-yl)-3,9-diazaspiro[5.5]undecan-3-yl)ethyl)-4-methylisobenzofuran-1(3H)-one]"
9,37,"CC1=C(N2CCC3(CCN(C[C@@H](O)c4ccc(-n5cnnn5)cn4)CC3)CC2)COC1=O [Example 52, (R)-4-(9-(2-(5-(1H-tetrazol-1-yl)pyridin-2-yl)-2-hydroxyethyl)-3,9-diazaspiro[5.5]undecan-3-yl)-3-methylfuran-2(5H)-one]"
10,171,"O=C1C=C(N2CCC3(CCN(C[C@H](O)c4ccc(-n5cnnn5)nc4)CC3)OC2=O)CO1 [Example 30, (R)-9-(2-(6-(1H-tetrazol-1-yl)pyridin-3-yl)-2-hydroxyethyl)-3-(5-oxo-2,5-dihydrofuran-3-yl)-1-oxa-3,9-diazaspiro[5.5]undecan-2-one]"
11,408,"O=C1C=C(N2CCC3(CCN(C(=O)Cc4c(F)cc(-n5cnnn5)cc4F)CC3)CC2)CO1 [Example 100, 4-(9-{[2,6-difluoro-4-(1H-tetrazol-1-yl)phenyl]acetyl}-3,9-diazaspiro[5.5]undec-3-yl)furan-2(5H)-one]"
12,16,"CC1=C(N2CCC3(CCN(C[C@@H](O)c4ccc(-n5cnnn5)cc4)CC3)CC2)COC1=O [Example 50, (S)-4-(9-(2-(4-(1H-tetrazol-1-yl)phenyl)-2-hydroxyethyl)-3,9-diazaspiro[5.5]undecan-3-yl)-3-methylfuran-2(5H)-one]"
13,317,"Cc1c(N2CCC3(CCN(C[C@H](O)c4ccc(-n5cnnn5)nn4)CC3)CC2)c(=O)c1=O [Example 83, (S)-3-(9-(2-(6-(1H-tetrazol-1-yl)pyridazin-3-yl)-2-hydroxyethyl)-3,9-diazaspiro[5.5]undecan-3-yl)-4-methylcyclobut-3-ene-1,2-dione]"
14,49,"Cc1nc(-n2cnnn2)ccc1[C@@H](O)CN1CCC2(CC1)CCN(C1=CC(=O)CC1)CC2 [Example 70, (R)-3-(9-(2-hydroxy-2-(2-methyl-6-(1H-tetrazol-1-yl)pyridin-3-yl)ethyl)-3,9-diazaspiro[5.5]undecan-3-yl)cyclopent-2-enone]"
15,146,"Cc1c([C@@H](O)CN2CCC3(CC2)CCN(C2=CC(=O)OCC2)CC3)ccc2c1COC2=O [Example 93, 5-{(1R)-1-hydroxy-2-[9-(6-oxo-3,6-dihydro-2H-pyran-4-yl)-3,9-diazaspiro[5.5]undec-3-yl]ethyl}-4-methyl-2-benzofuran-1(3H)-one]"
16,246,"O=C1C=C(N2CCC3(CCN(C(=O)Cc4cnc(-n5cnnn5)c(F)c4)CC3)CC2)CO1 [Example 101, 4-(9-{[5-fluoro-6-(1H-tetrazol-1-yl)pyridin-3-yl]acetyl}-3,9-diazaspiro[5.5]undec-3-yl)furan-2(5H)-one]"
17,22,"CC1=C(N2CCC3(CCN(C[C@H](O)c4cccc(-n5cnnn5)c4)CC3)CC2)COC1=O [Example 59, (R)-4-(9-(2-(3-(1H-tetrazol-1-yl)phenyl)-2-hydroxyethyl)-3,9-diazaspiro[5.5]undecan-3-yl)-3-methylfuran-2(5H)-one]"
